What was measured:
RNF12 SR-motif = RNF12 SR-motif phosphorylation in mouse cortical neurons by phos-tag immunoblotting; format: cell-based; settings: mature mouse cortical neurons cultured for 21 days, 10 μM, 4 h
Procedure: Figure 7 The SRPK-RNF12 Signaling Pathway Operates in Neurons (A) Primary cortical neurons isolated from E16.5 C57BL6 mice were cultured for the indicated number of days in vitro (DIV) and RNF12, SRPK1, and SRPK2, synaptophysin and actin levels analyzed via immunoblotting alongside the indicated mESC lines. (B) Cortical neurons were cultured for 21 days and treated with 10 μM MG132 and protein levels analyzed by immunoprecipitation and immunoblotting (REX1) and immunoblotting (RNF12 and ERK1/2). (C) Cortical neurons were cultured in vitro for the indicated number of days (DIV) and RNF12 and MAP2 neuron specific marker analyzed by immunofluorescence. Scale bar: 20 μm. (D) RNF12 SR-motif phosphorylation during in vitro mouse cortical neuron maturation was analyzed via phos-tag immunoblotting for RNF12. […] Synaptophysin and actin levels were determined by immunoblotting. […] Synaptophysin and actin levels were determined by immunoblotting. (F) The SRPK-RNF12-REX1 signaling pathway regulates neural gene expression and is disrupted in intellectual disability disorders. SRPK phosphorylates the RNF12 SR-motif to promote REX1 ubiquitylation and proteasomal degradation, which acts as a “brake” for neural gene expression in self-renewing pluripotent stem cells. In intellectual disability, inactivating mutations in SRPKs or RNF12 lead to REX1 accumulation and aberrant induction of neural genes. […]

SRPK2 = SRPK2 (Homo sapiens, UniProt P78362); test: REX1 fluorescent ubiquitylation assay with recombinant RNF12 incubated with SRPK2; format: biochemical; settings: pre-incubation with 10 μM
SRPK2, sequence (P78362 1-699 isoform P78362-2): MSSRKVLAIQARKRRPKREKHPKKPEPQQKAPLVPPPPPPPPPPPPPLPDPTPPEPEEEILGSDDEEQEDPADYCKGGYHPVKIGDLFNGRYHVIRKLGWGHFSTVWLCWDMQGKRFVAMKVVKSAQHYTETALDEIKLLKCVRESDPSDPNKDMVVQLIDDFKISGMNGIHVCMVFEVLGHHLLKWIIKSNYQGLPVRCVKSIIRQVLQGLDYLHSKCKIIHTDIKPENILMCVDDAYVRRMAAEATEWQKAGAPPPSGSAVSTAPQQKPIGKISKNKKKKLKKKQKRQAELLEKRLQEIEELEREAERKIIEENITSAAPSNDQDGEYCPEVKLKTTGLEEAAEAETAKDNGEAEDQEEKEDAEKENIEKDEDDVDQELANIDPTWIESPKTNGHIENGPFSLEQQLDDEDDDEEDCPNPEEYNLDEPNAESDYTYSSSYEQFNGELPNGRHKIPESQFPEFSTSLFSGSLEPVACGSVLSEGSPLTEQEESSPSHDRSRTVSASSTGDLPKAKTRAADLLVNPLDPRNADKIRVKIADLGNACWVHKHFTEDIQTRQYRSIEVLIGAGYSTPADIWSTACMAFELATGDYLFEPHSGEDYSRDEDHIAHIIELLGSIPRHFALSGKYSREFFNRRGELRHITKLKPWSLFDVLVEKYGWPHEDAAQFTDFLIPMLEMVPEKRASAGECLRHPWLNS
Procedure: Infrared scans of ubiquitylated substrate signal (Top) and quantification (Bottom). Data represented as mean ± SEM (n = 3). […] (^∗) p = 0.0350. Phospho-Ser214 and total RNF12, REX1, and SRPK2 infrared immunoblots are shown. ^∗ = non-specific fluorescent signal. (B) Recombinant RNF12 was incubated with WT or kinase dead (KD) SRPK2 and subjected to REX1 fluorescent ubiquitylation assays. Infrared scans of ubiquitylated substrate signal (Top) and quantification (Bottom). Data represented as mean ± SEM (n = 3). […] (^∗∗∗∗) p < 0.0001. Phospho-Ser214 and total RNF12, REX1, and SRPK2 infrared immunoblots are shown. ^∗ = non-specific fluorescent signal. (C) Recombinant RNF12 was incubated with WT or KD SRPK2 and SMAD7 ubiquitylation assessed. Infrared scans of ubiquitylated substrate signal (Top) and quantification (Bottom). Data represented as mean ± SD (n = 2). Phospho-Ser214 and total RNF12, REX1, and SRPK2 infrared immunoblots are shown. ^∗ = non-specific fluorescent signal. (D) Recombinant RNF12 was incubated with WT (pRNF12) or KD (unpRNF12) SRPK2 and subjected to E2 ubiquitin discharge assay. Infrared immunoblot scans (Top Left), reaction rate determinations (Top Right) and normalized quantification of E2-ubiquitin conjugate signal (Bottom) are shown. […] RNF12, REX1, phospho-Ser214 RNF12 and SRPK1 infrared immunoblots (Top) and RNF12-REX1 binding quantification (bottom) are shown. […]

[1] = system: Ser-Arg rich splicing factors (SRSF); test: SRSF phosphorylation in mESCs, immunoblotting with phosphoepitope SR proteins antibody; format: cell-based, mouse; settings: 10 μM, 4 h
Procedure: SRSF phosphorylation, SRPK1, SRPK2, and ERK1/2 levels were determined by immunoblotting. […] Quantification of SRSF phosphorylation (Right). Data represented as mean ± SEM (n = 4). […] Data represented as mean ± SEM (n = 3). One-way ANOVA followed by Tukey’s multiple comparisons test; confidence level 95%.
All compounds were diluted in DMSO and mESCs treated with 10 μM inhibitor for 4 h prior lysis unless indicated otherwise.
SDS-PAGE electrophoresis and immunoblotting was performed using standard methods. Cells were lysed in lysis buffer (20 mM Tris [pH 7.4], 150 mM NaCl, 1 mM EDTA, 1% NP-40 [v/v], 0.5% sodium deoxycholate [w/v], 10 mM β-glycerophosphate, 10 mM sodium pyrophosphate, 1 mM NaF, 2 mM Na3VO4, and Roche Complete Protease Inhibitor Cocktail Tablets). Phospho-specific antibodies were used at 1 μg/ml with 10 μg/ml of the corresponding non-phosphopeptide. After secondary antibody incubation, membranes were subjected to chemiluminescence detection with Immobilon Western Chemiluminescent HRP Substrate (Millipore) using a Gel-Doc XR+ System (Bio-Rad) or Infrared detection using a LI-COR Odyssey Clx system.

SMILES: CCc1cc2c(cc1-c1cccc(S(=O)(=O)F)c1)C(C)(C)c1[nH]c3cc(C#N)ccc3c1C2=O [SRPKIN-1]
- RNF12 phosphorylation (phos-tag) (RNF12 SR-motif): suppressed RNF12 phosphorylation
- enhancement of REX1 ubiquitylation following RNF12 phosphorylation by SRPK2 (SRPK2): not observed
- phosphorylation of SRSF4 [1]: only slightly inhibited
- phosphorylation of SRSF6/11, SRSF5/7/10 [1]: not significantly altered

Source: article PMC7725506, “Functional Diversification of SRSF Protein Kinase to Control Ubiquitin-Dependent Neurodevelopmental Signaling” (Developmental Cell, 2020)
